Laboratory results as given in the supplement of paper PMC13380429.

Columns and labels:
Settings in all cases: 72 h
Caco-2 [1] = experiment: cell viability relative to DMSO; higher = less toxic
Calu-3 [2] = experiment: as above
HepG2 [3] = experiment: as above
U2OS [4] = experiment: as above
Vero E6 [5] = experiment: as above
Caco-2 [6] = experiment: relative viability EC50 (midpoint between 100% and the lowest measured viability); higher = less toxic
Calu-3 [7] = experiment: as above
HepG2 [8] = experiment: as above
U2OS [9] = experiment: as above
Vero E6 [10] = experiment: as above
Caco-2 [11] = experiment: drug sensitivity score (DSS) for viability; higher = more toxic; extreme values may be limits of the assay
Calu-3 [12] = experiment: as above
HepG2 [13] = experiment: as above
U2OS [14] = experiment: as above
Vero E6 [15] = experiment: as above

In the case of `COc1c(C)cnc(Cn2cc(C#CCC(C)(C)O)c3c(Cl)nc(N)nc32)c1C` [EC-144], the cell viability (Caco-2 [1]; 1 nM) is reported as 105%, the cell viability (Caco-2 [1]; 10 nM) is reported as 97.3% and the cell viability (Caco-2 [1]; 100 nM) is reported as 88.8%. The cell viability (Caco-2 [1]; 1000 nM) was 33.1%, the cell viability (Caco-2 [1]; 10000 nM) was 39.9% and the cell viability (Calu-3 [2]; 1 nM) was 104%. For the same compound, the cell viability (Calu-3 [2]; 10 nM) was 108%, the cell viability (Calu-3 [2]; 100 nM) was 84.3% and the cell viability (Calu-3 [2]; 1000 nM) was 39.4%. For the same compound, the cell viability (Calu-3 [2]; 10000 nM) was 49.5%, the cell viability (HepG2 [3]; 1 nM) was 96.4% and the cell viability (HepG2 [3]; 10 nM) was 103%. The cell viability (HepG2 [3]; 100 nM) was 32.3%, the cell viability (HepG2 [3]; 1000 nM) was 1.2% and the cell viability (HepG2 [3]; 10000 nM) was 1.3%. It also gave a cell viability (U2OS [4]; 1 nM) of 110%, a cell viability (U2OS [4]; 10 nM) of 107% and a cell viability (U2OS [4]; 100 nM) of 94.5%. It also gave a cell viability (U2OS [4]; 1000 nM) of 9.2%, a cell viability (U2OS [4]; 10000 nM) of 3.5% and a cell viability (Vero E6 [5]; 1 nM) of 99.3%. The cell viability (Vero E6 [5]; 10 nM) was 102%, the cell viability (Vero E6 [5]; 100 nM) was 105% and the cell viability (Vero E6 [5]; 1000 nM) was 37.3%. The cell viability (Vero E6 [5]; 10000 nM) was 32.8%, the “relative viability EC50” value (Caco-2 [6]) was 0.189 µM and the “relative viability EC50” value (Calu-3 [7]) was 0.152 µM. The “relative viability EC50” value (HepG2 [8]) was 0.0735 µM, the “relative viability EC50” value (U2OS [9]) was 0.319 µM and the “relative viability EC50” value (Vero E6 [10]) was 0.413 µM. The drug sensitivity score (Caco-2 [11]) was 14.2, the drug sensitivity score (Calu-3 [12]) was 13.6 and the drug sensitivity score (HepG2 [13]) was 25.6. It also gave a drug sensitivity score (U2OS [14]) of 17.3 and a drug sensitivity score (Vero E6 [15]) of 11.3.

In the case of `C1COC(NC(C2CC2)C2CC2)=N1` [rilmenidine], the cell viability (Caco-2 [1]; 1 nM) is reported as 103%, the cell viability (Caco-2 [1]; 10 nM) is reported as 100% and the cell viability (Caco-2 [1]; 100 nM) is reported as 103%. For the same compound, the cell viability (Caco-2 [1]; 1000 nM) was 93.4%, the cell viability (Caco-2 [1]; 10000 nM) was 104% and the cell viability (Calu-3 [2]; 1 nM) was 98.6%. It also gave a cell viability (Calu-3 [2]; 10 nM) of 82.1%, a cell viability (Calu-3 [2]; 100 nM) of 109% and a cell viability (Calu-3 [2]; 1000 nM) of 95.8%. It also gave a cell viability (Calu-3 [2]; 10000 nM) of 105%, a cell viability (HepG2 [3]; 1 nM) of 99.3% and a cell viability (HepG2 [3]; 10 nM) of 110%. For the same compound, the cell viability (HepG2 [3]; 100 nM) was 97.2%, the cell viability (HepG2 [3]; 1000 nM) was 100% and the cell viability (HepG2 [3]; 10000 nM) was 103%. The cell viability (U2OS [4]; 1 nM) was 104%, the cell viability (U2OS [4]; 10 nM) was 97% and the cell viability (U2OS [4]; 100 nM) was 108%. The cell viability (U2OS [4]; 1000 nM) was 98.2%, the cell viability (U2OS [4]; 10000 nM) was 104% and the cell viability (Vero E6 [5]; 1 nM) was 95.9%. It also gave a cell viability (Vero E6 [5]; 10 nM) of 99.1%, a cell viability (Vero E6 [5]; 100 nM) of 95.3% and a cell viability (Vero E6 [5]; 1000 nM) of 101%. The cell viability (Vero E6 [5]; 10000 nM) was 97.4%, the “relative viability EC50” value (Caco-2 [6]) was > 10 µM and the “relative viability EC50” value (Calu-3 [7]) was > 10 µM. For the same compound, the “relative viability EC50” value (HepG2 [8]) was > 10 µM, the “relative viability EC50” value (U2OS [9]) was > 10 µM and the “relative viability EC50” value (Vero E6 [10]) was > 10 µM. It also gave a drug sensitivity score (Caco-2 [11]) of 0, a drug sensitivity score (Calu-3 [12]) of 0 and a drug sensitivity score (HepG2 [13]) of 0. It also gave a drug sensitivity score (U2OS [14]) of 0 and a drug sensitivity score (Vero E6 [15]) of 0.

In the case of `c1ccc2c(c1)sc1ccccc12` [dibenzothiophene], the cell viability (Caco-2 [1]; 1 nM) is reported as 101%, the cell viability (Caco-2 [1]; 10 nM) is reported as 98.7% and the cell viability (Caco-2 [1]; 100 nM) is reported as 99.9%. It also gave a cell viability (Caco-2 [1]; 1000 nM) of 91.1%, a cell viability (Caco-2 [1]; 10000 nM) of 99.8% and a cell viability (Calu-3 [2]; 1 nM) of 99.4%. For the same compound, the cell viability (Calu-3 [2]; 10 nM) was 103%, the cell viability (Calu-3 [2]; 100 nM) was 92.1% and the cell viability (Calu-3 [2]; 1000 nM) was 96.1%. For the same compound, the cell viability (Calu-3 [2]; 10000 nM) was 101%, the cell viability (HepG2 [3]; 1 nM) was 102% and the cell viability (HepG2 [3]; 10 nM) was 96.8%. For the same compound, the cell viability (HepG2 [3]; 100 nM) was 104%, the cell viability (HepG2 [3]; 1000 nM) was 106% and the cell viability (HepG2 [3]; 10000 nM) was 101%. It also gave a cell viability (U2OS [4]; 1 nM) of 105%, a cell viability (U2OS [4]; 10 nM) of 101% and a cell viability (U2OS [4]; 100 nM) of 104%. The cell viability (U2OS [4]; 1000 nM) was 96.7%, the cell viability (U2OS [4]; 10000 nM) was 104% and the cell viability (Vero E6 [5]; 1 nM) was 100%. For the same compound, the cell viability (Vero E6 [5]; 10 nM) was 96.6%, the cell viability (Vero E6 [5]; 100 nM) was 99% and the cell viability (Vero E6 [5]; 1000 nM) was 98.5%. The cell viability (Vero E6 [5]; 10000 nM) was 98.8%, the “relative viability EC50” value (Caco-2 [6]) was > 10 µM and the “relative viability EC50” value (Calu-3 [7]) was > 10 µM. The “relative viability EC50” value (HepG2 [8]) was > 10 µM, the “relative viability EC50” value (U2OS [9]) was > 10 µM and the “relative viability EC50” value (Vero E6 [10]) was > 10 µM. The drug sensitivity score (Caco-2 [11]) was 0, the drug sensitivity score (Calu-3 [12]) was 0 and the drug sensitivity score (HepG2 [13]) was 0. For the same compound, the drug sensitivity score (U2OS [14]) was 0 and the drug sensitivity score (Vero E6 [15]) was 0.

In the case of `COCCOc1ccc(N2CCN(CCn3ncc4c3nc(N)n3nc(-c5ccco5)nc43)CC2)cc1` [preladenant], the cell viability (Caco-2 [1]; 1 nM) is reported as 98.1%, the cell viability (Caco-2 [1]; 10 nM) is reported as 99% and the cell viability (Caco-2 [1]; 100 nM) is reported as 98.1%. For the same compound, the cell viability (Caco-2 [1]; 1000 nM) was 91.8%, the cell viability (Caco-2 [1]; 10000 nM) was 93.1% and the cell viability (Calu-3 [2]; 1 nM) was 106%. It also gave a cell viability (Calu-3 [2]; 10 nM) of 112%, a cell viability (Calu-3 [2]; 100 nM) of 97.2% and a cell viability (Calu-3 [2]; 1000 nM) of 92.3%. It also gave a cell viability (Calu-3 [2]; 10000 nM) of 107%, a cell viability (HepG2 [3]; 1 nM) of 97% and a cell viability (HepG2 [3]; 10 nM) of 105%. It also gave a cell viability (HepG2 [3]; 100 nM) of 94%, a cell viability (HepG2 [3]; 1000 nM) of 99.6% and a cell viability (HepG2 [3]; 10000 nM) of 93.2%. The cell viability (U2OS [4]; 1 nM) was 97.6%, the cell viability (U2OS [4]; 10 nM) was 101% and the cell viability (U2OS [4]; 100 nM) was 95.3%. For the same compound, the cell viability (U2OS [4]; 1000 nM) was 95.1%, the cell viability (U2OS [4]; 10000 nM) was 96.9% and the cell viability (Vero E6 [5]; 1 nM) was 91.2%. It also gave a cell viability (Vero E6 [5]; 10 nM) of 99.5%, a cell viability (Vero E6 [5]; 100 nM) of 97.7% and a cell viability (Vero E6 [5]; 1000 nM) of 102%. The cell viability (Vero E6 [5]; 10000 nM) was 99.6%, the “relative viability EC50” value (Caco-2 [6]) was > 10 µM and the “relative viability EC50” value (Calu-3 [7]) was > 10 µM. The “relative viability EC50” value (HepG2 [8]) was > 10 µM, the “relative viability EC50” value (U2OS [9]) was > 10 µM and the “relative viability EC50” value (Vero E6 [10]) was > 10 µM. It also gave a drug sensitivity score (Caco-2 [11]) of 0, a drug sensitivity score (Calu-3 [12]) of 0 and a drug sensitivity score (HepG2 [13]) of 0. For the same compound, the drug sensitivity score (U2OS [14]) was 0 and the drug sensitivity score (Vero E6 [15]) was 0.

In the case of `CC(C)(CO)c1cc2cc(NC(=O)C3(c4ccc5c(c4)OC(F)(F)O5)CC3)c(F)cc2n1C[C@@H](O)CO` [tezacaftor], the cell viability (Caco-2 [1]; 1 nM) is reported as 101%, the cell viability (Caco-2 [1]; 10 nM) is reported as 98.1% and the cell viability (Caco-2 [1]; 100 nM) is reported as 96.3%. It also gave a cell viability (Caco-2 [1]; 1000 nM) of 89.1%, a cell viability (Caco-2 [1]; 10000 nM) of 98.8% and a cell viability (Calu-3 [2]; 1 nM) of 101%. The cell viability (Calu-3 [2]; 10 nM) was 96.8%, the cell viability (Calu-3 [2]; 100 nM) was 104% and the cell viability (Calu-3 [2]; 1000 nM) was 104%. For the same compound, the cell viability (Calu-3 [2]; 10000 nM) was 106%, the cell viability (HepG2 [3]; 1 nM) was 113% and the cell viability (HepG2 [3]; 10 nM) was 102%. It also gave a cell viability (HepG2 [3]; 100 nM) of 94.1%, a cell viability (HepG2 [3]; 1000 nM) of 97.2% and a cell viability (HepG2 [3]; 10000 nM) of 96.3%. The cell viability (U2OS [4]; 1 nM) was 99.2%, the cell viability (U2OS [4]; 10 nM) was 96.7% and the cell viability (U2OS [4]; 100 nM) was 101%. The cell viability (U2OS [4]; 1000 nM) was 97.7%, the cell viability (U2OS [4]; 10000 nM) was 93.2% and the cell viability (Vero E6 [5]; 1 nM) was 90.3%. It also gave a cell viability (Vero E6 [5]; 10 nM) of 98.2%, a cell viability (Vero E6 [5]; 100 nM) of 92.4% and a cell viability (Vero E6 [5]; 1000 nM) of 94.6%. The cell viability (Vero E6 [5]; 10000 nM) was 93.1%, the “relative viability EC50” value (Caco-2 [6]) was > 10 µM and the “relative viability EC50” value (Calu-3 [7]) was > 10 µM. For the same compound, the “relative viability EC50” value (HepG2 [8]) was > 10 µM, the “relative viability EC50” value (U2OS [9]) was > 10 µM and the “relative viability EC50” value (Vero E6 [10]) was > 10 µM. The drug sensitivity score (Caco-2 [11]) was 0, the drug sensitivity score (Calu-3 [12]) was 0 and the drug sensitivity score (HepG2 [13]) was 0. The drug sensitivity score (U2OS [14]) was 0 and the drug sensitivity score (Vero E6 [15]) was 0.
